In one data set the target is T1, Iso (Pseudomonas putida, UniProt F8G0M3).
T1 sequence (F8G0M3 1-252): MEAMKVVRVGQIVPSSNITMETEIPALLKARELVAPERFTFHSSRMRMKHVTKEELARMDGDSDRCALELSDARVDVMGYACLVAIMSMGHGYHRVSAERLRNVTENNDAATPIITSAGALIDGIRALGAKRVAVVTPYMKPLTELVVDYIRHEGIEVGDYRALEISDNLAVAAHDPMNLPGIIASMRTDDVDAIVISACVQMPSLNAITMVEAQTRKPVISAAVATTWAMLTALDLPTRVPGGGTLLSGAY
Nature of the data set: spectrophotometric, maleate consumption at […] nm. In kind it is biochemical. The note with it: read-out: apparent Km; 50 mM Tris-HCl pH 8.4, 30°C, 1-thioglycerol.

For a further data set, the target named is T2, Ami (Pseudomonas putida, UniProt F8G0M0).
T2 sequence (F8G0M0 1-208): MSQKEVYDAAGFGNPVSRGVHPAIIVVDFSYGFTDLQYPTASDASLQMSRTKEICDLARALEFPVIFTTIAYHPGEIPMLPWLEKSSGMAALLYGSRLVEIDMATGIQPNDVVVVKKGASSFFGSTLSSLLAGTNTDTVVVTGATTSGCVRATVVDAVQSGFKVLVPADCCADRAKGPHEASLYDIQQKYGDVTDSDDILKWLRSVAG
Nature of the data set: coupled glutamate dehydrogenase assay, NADPH at […] nm. In kind it is biochemical. The note with it: 50 mM Tris-HCl, 1 mM EDTA, 20°C, alpha-ketoglutarate.

Another data set has as its target T3, Nfo (Pseudomonas putida, UniProt F8G0M2).
T3 sequence (F8G0M2 1-255): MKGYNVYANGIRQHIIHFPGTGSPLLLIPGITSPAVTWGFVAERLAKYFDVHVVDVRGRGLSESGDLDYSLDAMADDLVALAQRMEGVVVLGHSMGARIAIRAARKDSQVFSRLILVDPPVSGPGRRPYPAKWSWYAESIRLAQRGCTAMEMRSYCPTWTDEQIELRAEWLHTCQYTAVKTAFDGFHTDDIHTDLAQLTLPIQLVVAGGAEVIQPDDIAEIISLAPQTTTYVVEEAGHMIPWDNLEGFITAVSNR
In words: coupled formate dehydrogenase assay, NADH at […] nm. Format: biochemical. The conditions noted are these: 50 mM Tris-HCl pH 8.0, 20°C, NAD.

Substrate in the data set “purified protein”: Oc1ccc(O)nc1
Nature of the data set: purified protein. In kind it is biochemical, Pseudomonas putida. The conditions noted are these: 0.025 mM Fe2+, 18.2 mM Tris-HCl pH 8.0, 20°C.

This note sets out measurements from publication PMC3332521 (Scientific Reports, 2012).

Turning to `O=C(O)/C=C\C(=O)O` [maleate], the Km on Iso was determined as 689 µM.

`NC(=O)/C=C\C(=O)O` [maleamic acid]: the “coupled glutamate dehydrogenase assay, NADPH at 340 nm” value on Ami is “Purified Ami (Fig. 3A) transformed maleamic acid to maleic acid”.

Take `O=CNC(=O)/C=C\C(=O)O` [NFM]: the “coupled formate dehydrogenase assay, NADH at 340 nm” value on Nfo is recorded as “Nfo activity was measured through its production of formate by a coupled reaction”.

B1: Hpo (Pseudomonas putida S16) (protein)
chain: MDHVSFTEICLRQLKMSGVHEGERLIVLTQGHERLAYADAFMAAGQRLGAEMYHMRLPSPLPSNGWAVGVTGLADLPGAVEALKNCDMLIDCVFLLFSAEQFEIQAAGTRILTAVEPPELLARMLPFPELREKVSIAAELVENAKDMRITSPHGTDITYKLNTYPTIAEYACTDTPGRWDHWPSGFVFTGGDDDGVDGTIVVAPGDVLLPQNLMVREPITYTIEKGWIVDIRGGLEAQIVNSYMDSFNDPRGKGMSHVGWGMNPHAKWHNFVPGQFTGGMGMELRSFYGNVMFSTGPNNELGGSNDTACHLDIPMRNCSLFLDDTPVVIDGDIVVKEIQLVQR
As for B1, the Km in “purified protein” turned out to be 0.168 µM.
